Results as given in PMC3530532, “Corticosteroid-Binding Globulin: Structure-Function Implications from Species Differences” (PLoS ONE, 2012).

Legend:
Rat CBG-WT = target: T1, Rat CBG-WT (Rattus norvegicus, UniProt P31211); experiment: Isothermal titration calorimetry, steroid titrated to rat CBG-WT; assay type: binding; details: ITC, 25°C
T1 construct: residues 5 to 374 of rat CBG (P31211); GST (N, cleaved yes); made in house; host or cells: E. coli BL21 Star (DE3)
T1 sequence (P31211 27-396): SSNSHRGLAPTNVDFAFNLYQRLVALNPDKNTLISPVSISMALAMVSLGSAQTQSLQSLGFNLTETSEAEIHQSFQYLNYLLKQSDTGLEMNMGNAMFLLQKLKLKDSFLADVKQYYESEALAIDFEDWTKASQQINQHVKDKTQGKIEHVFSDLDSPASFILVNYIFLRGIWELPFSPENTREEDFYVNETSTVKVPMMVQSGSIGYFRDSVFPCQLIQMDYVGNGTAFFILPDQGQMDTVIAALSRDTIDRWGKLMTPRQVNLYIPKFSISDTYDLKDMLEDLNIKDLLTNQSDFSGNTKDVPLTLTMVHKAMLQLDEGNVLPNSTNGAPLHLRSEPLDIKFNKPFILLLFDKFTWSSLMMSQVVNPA
Description: The coding sequences of residues 11 to 383 of human CBG (Swiss-Prot entry P08185) and residues 5 to 374 of rat CBG (P31211) were cloned into a pGEX-2T vector (GE Healthcare, Uppsala), yielding N-terminal glutathione-S-transferase (GST) fusion proteins. Mutations were introduced using a two-stage PCR procedure based on the QuikChange (Stratagene, Santa Clara) site-directed mutagenesis protocol. All experiments with human CBG were conducted with a mutant in which surface residue Lys126 was replaced by alanine in order to facilitate crystallization. Wild-type rat CBG (rat CBG-WT) and rat CBG mutants CBG-RCL1, CBG-RCL2 and CBG-RCL3 were produced to probe the function of the RCL residues in rat CBG. All gene constructs were confirmed by DNA sequencing prior to protein production.
The GST-tagged human and rat CBG variants were produced in E. coli BL21 Star™ (DE3) cells (Invitrogen, Carlsbad) using the ZYM-5052 auto-inducing medium. For each variant, 10 L of ZYM-5052 medium containing 100 µg/mL ampicillin were inoculated with an overnight culture of a single clone. The flasks were incubated at 37°C until the optical density at 600 nm reached 0.3. The temperature was then lowered to 20°C, and the cells were allowed to grow for an additional 20 h. The pellet was resuspended in PBS buffer (pH 7.4) containing 5 mM EDTA after cell harvesting (4 mL of buffer per gram of pellet).
The protein samples were dialyzed against ITC buffer (20 mM potassium phosphate, 50 mM NaCl, pH 7.4) and titrated with steroids in a VP-ITC microcalorimeter (Microcal, Piscataway). All solutions were filtered (0.2 µm filter pore size) and degassed for 30 min prior to the titration experiments. The sample cell was filled with protein solution containing 15 µM rat CBG or 20 µM human CBG and titrated with steroid solutions containing 150 µM and 200 µM ligand, respectively. The titrations consisted of an initial injection of 2 µL followed by 25 consecutive injections of 10 µL ligand solution at 25°C. A spacing of 240 sec between the injections was used to allow a return to the baseline. Data points from the initial injection, which are generally affected by diffusion during the initial equilibration period after experiment setup, were discarded prior to data analysis. […] The binding curve was generated by plotting the heats of injections against the ratio of ligand to protein in the cell. Integrated heat data were analyzed using nonlinear regression fit with a one-site-binding model in the Origin-7™ software provided with the VP-ITC. Changes in the free energy and entropy can be calculated using the equation: ΔG° = −RTlnK = ΔH°−TΔS°. In this equation ΔG° is the change in Gibbs free energy, R the universal gas constant, T the temperature, and K the association constant. The change in enthalpy is denoted as ΔH°, and ΔS° is the change in entropy under standard conditions. The data shown in Table 2 were obtained from single titrations of each complex.

CBG = details: cited from earlier work

Which “TΔS°” value (Rat CBG-WT; rat CBG-WT) does the source give for `C[C@]12CCC(=O)C=C1CC[C@@H]1[C@@H]2[C@@H](O)C[C@@]2(C)[C@H]1CC[C@]2(O)C(=O)CO` [Hydrocortisone] here?
The value was -20.3 kcal/mol.

And the “ΔG°” value (Rat CBG-WT; rat CBG-WT)?
Its value is -9.44 kcal/mol.

And the “ΔH°” value (Rat CBG-WT; rat CBG-WT)?
The value was -29.78 kcal/mol.

And the Kd (Rat CBG-WT; single titration, uncleaved rat CBG-WT)?
Its Kd is 122 ± 6 nM.

And the “fraction circulating free in plasma” value (CBG)?
The value was 4–5%.

What about the “fraction of cortisol in plasma bound by CBG” value (CBG) of the same compound?
The value was 80–90%.
